Results taken from patent US8357700B2, “2,3-disubstituted piperidine orexin receptor antagonists” (Merck Sharp & Dohme Corp., priority 2008, dated 2013).

Assays:
orexin-1 receptor (OX1R) = biological target: T1, orexin-1 receptor (OX1R) (UniProt O43613); test: radioligand binding assay, membranes from CHO cells expressing OX1 receptor; conditions: CHO cell membranes
T1 sequence (O43613 1-425): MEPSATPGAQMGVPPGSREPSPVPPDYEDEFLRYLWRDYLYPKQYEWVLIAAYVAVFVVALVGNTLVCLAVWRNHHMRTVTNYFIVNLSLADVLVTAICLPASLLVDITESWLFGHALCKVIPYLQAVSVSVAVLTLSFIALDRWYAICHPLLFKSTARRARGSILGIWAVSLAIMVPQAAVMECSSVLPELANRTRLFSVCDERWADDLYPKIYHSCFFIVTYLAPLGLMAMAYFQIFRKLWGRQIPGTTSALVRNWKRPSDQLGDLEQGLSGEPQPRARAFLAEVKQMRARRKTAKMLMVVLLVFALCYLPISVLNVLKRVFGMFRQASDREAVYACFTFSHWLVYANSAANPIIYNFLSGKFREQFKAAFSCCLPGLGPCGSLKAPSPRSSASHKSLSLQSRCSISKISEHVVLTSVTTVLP
Description: (§1) The utility of the compounds in accordance with the present invention as orexin receptor OX1R and/or OX2R antagonists may be readily determined without undue experimentation by methodology well known in the art, including the “FLIPR Ca^2+ Flux Assay” (Okumura et al., Biochem. Biophys. Res. Comm. 280:976-981, 2001). In a typical experiment the OX1 and OX2 receptor antagonistic activity of the compounds of the present invention was determined in accordance with the following experimental method. For intracellular calcium measurements, Chinese hamster ovary (CHO) cells expressing the rat OX1 receptor or the human OX2 receptor, are grown in Iscove's modified DMEM containing 2 mM L-glutamine, […], 1% hypoxanthine-thymidine supplement, 100 U/ml penicillin, 100 ug/ml streptomycin and 10% heat-inactivated fetal calf serum (FCS). The cells are seeded at 20,000 cells/well into Becton-Dickinson black 384-well clear bottom sterile plates coated with poly-D-lysine. All reagents were from GIBCO-Invitrogen Corp. The seeded plates are incubated overnight at 37° C. and 5% CO2. Ala-6,12 human orexin-A as the agonist is prepared as a 1 mM stock solution in 1% bovine serum albumin (BSA) and diluted in assay buffer (HBSS containing 20 mM HEPES, 0.1% BSA and 2.5 mM probenecid, pH7.4) for use in the assay at a final concentration of 70 pM. Test compounds are prepared as 10 mM stock solution in DMSO, then diluted in 384-well plates, first in DMSO, then assay buffer. On the day of the assay, cells are washed 3 times with 100 ul assay buffer and then incubated for 60 min (37° C., 5% CO2) in 60 ul assay buffer containing 1 uM Fluo-4AM ester, 0.02% pluronic acid, and 1% BSA. The dye loading solution is then aspirated and cells are washed 3 times with 100 ul assay buffer. 30 ul of that same buffer is left in each well. Within the Fluorescent Imaging Plate Reader (FLIPR, Molecular Devices), test compounds are added to the plate in a volume of 25 ul, incubated for 5 min and finally 25 ul of agonist is added. Fluorescence is measured for each well at 1 second intervals for 5 minutes and the height of each fluorescence peak is compared to the height of the fluorescence peak induced by 70 pM Ala-6,12 orexin-A with buffer in place of antagonist. For each antagonist, IC50 value (the concentration of compound needed to inhibit 50% of the agonist response) is determined. Alternatively, compound potency can be assessed by a radioligand binding assay (described in Bergman et. al. Bioorg. Med. Chem. Lett. 2008, 18, 1425-1430) in which the inhibition constant (Ki) is determined in membranes prepared from CHO cells expressing either the orexin-1 (OX1) or orexin-2 (OX2) receptor. The intrinsic orexin receptor antagonist activity of a compound which may be used in the present invention may be determined by these assays.

orexin-2 receptor (OX2R) = biological target: T2, orexin-2 receptor (OX2R) (Homo sapiens, UniProt O43614); test: radioligand binding assay, membranes from CHO cells expressing OX2 receptor; conditions: CHO cell membranes
T2 construct: expressed in transfected cells; host or cells: CHO cells (membranes)
T2 sequence (O43614 1-444): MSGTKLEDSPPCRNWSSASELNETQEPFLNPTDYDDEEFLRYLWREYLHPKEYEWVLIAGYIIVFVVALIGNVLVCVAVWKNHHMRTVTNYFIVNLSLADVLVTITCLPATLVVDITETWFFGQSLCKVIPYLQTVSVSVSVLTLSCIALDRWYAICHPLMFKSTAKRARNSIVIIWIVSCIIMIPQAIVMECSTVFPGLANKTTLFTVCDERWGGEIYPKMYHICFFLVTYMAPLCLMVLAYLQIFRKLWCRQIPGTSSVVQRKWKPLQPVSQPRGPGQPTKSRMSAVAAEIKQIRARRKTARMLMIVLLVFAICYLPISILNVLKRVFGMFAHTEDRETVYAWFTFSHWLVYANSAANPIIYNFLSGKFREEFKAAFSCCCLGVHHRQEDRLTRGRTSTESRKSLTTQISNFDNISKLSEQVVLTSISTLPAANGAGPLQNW
Description: as §1

SMILES | Ki (orexin-1 receptor (OX1R)) | Ki (orexin-2 receptor (OX2R))
Cc1ccc(-n2nccn2)c(C(=O)N2CCC[C@@H](COc3ccc(Br)cn3)[C@@H]2C)c1 (stereo in doubt) [A-7, 5-bromo-2-({2-methyl-1-[5-methyl-2-(2H-1,2,3-triazol-2-yl)benzoyl]piperidin-3-yl}methoxy)pyridine] | 1.1 nM | 6.4 nM
Cc1ccc(-n2nccn2)c(C(=O)N2CCC[C@@H](COc3nccc4ccccc34)[C@@H]2C)c1 (stereo in doubt) [A-8, 1-({2-methyl-1-[5-methyl-2-(2H-1,2,3-triazol-2-yl)benzoyl]piperidin-3-yl}methoxy)isoquinoline] | 0.5 nM | 2.1 nM
Cc1ccc(-n2nccn2)c(C(=O)N2CCC[C@@H](COc3cccc(Br)n3)[C@@H]2C)c1 (stereo in doubt) [A-9, 2-bromo-6-({2-methyl-1-[5-methyl-2-(2H-1,2,3-triazol-2-yl)benzoyl]piperidin-3-yl}methoxy)pyridine] | 2.7 nM | 7.5 nM
Cc1ccc(-n2nccn2)c(C(=O)N2CCC[C@@H](COc3ccnc4ccccc34)[C@@H]2C)c1 (stereo in doubt) [A-10, 4-({2-methyl-1-[5-methyl-2-(2H-1,2,3-triazol-2-yl)benzoyl]piperidin-3-yl}methoxy)quinoline] | 0.6 nM | 2.6 nM
Cc1ccc(-n2nccn2)c(C(=O)N2CCC[C@@H](COc3ccccn3)[C@@H]2C)c1 [A-6] | 1 nM | 39 nM
